Assays:
[1] = Partition coefficient in n-octanol/water (log P) with radiolabeled species; type: physicochemical
Source text: Radiolabeled species ([^14C]nonoxynol-9, [^125I]iodinated nonoxynol-9) were used to obtain precise measurements of the log P values. Iodinated nonoxynol-9 was conceptualized to be more lipophilic based upon the work by chemists such as Hammett and Hansch. Hammett determined that the halogens (F, Cl, Br, I), when attached covalently to an aromatic ring, withdrew a portion of the electron density out of the ring. The decrease in electron density causes the ring to be less susceptible to induced polarization by solvent molecules, therefore increasing its lipophilic character. The hydrophobic parameter π, developed by Hansch, reflects a substituent's ability to impart lipophilic character on a molecule (π=log Psubstituted molecule−log […]). Hansch found experimentally that the halogens created a positive π value in most molecular systems which correlated with an increase in the lipophilicity of the compound. […] Additionally, the lengthening of the ethylene oxide chain allows for reduced irritation of the vaginal epithelial lining by reducing the formation of micelles. […] Iodide was chosen as the halogen to substitute nonoxynol-9 due to its relatively large σ and π values it produces when employed as a substituent. With an increase in the hydrophobic character, iodinated nonoxynol-9 should insert into sperm membranes more readily leading to an increase in spermicidal activity. In addition, the molecular weight and size of iodinated nonoxynol-9 is greater than that of nonoxynol-9 which leads to the possibility of the molecule being less bioavailable from vaginally placed dosage forms.

free HIV-1-RF = test: Cell-Free HIV Inactivation assay; type: cell-based; settings: for Infec. Red. (log), Cell-Free HIV Inactivation: two minute incubation; for virucidal activity against cell-free HIV: sufficient if viral titer reduction of at least two log10 units
Method: (§1) The compounds used in the Sander-Cramer assays (neat liquids and coprecipitates) were evaluated for their anti-HIV activity using the Cell-Free and Cell-Associated Inactivation Assays (see Table #3). Both assays employ solutions of active compound at varying concentrations in order to detect the optimal concentration to reduce the infectivity of a predetermined HIV viral load in the form of free HIV-1-RF or RF infected H9 cells. A solution of active compound is determined to have sufficient anti-viral activity if, when tested, a viral titer reduction of at least two log10 units occurs. N-9 and IN-9, in their neat liquid forms, were both found to be virucidal against cell-free and cell-associate HIV. […] The coprecipitates of N-9 (n=1-17) and IN-9 (n=1-17) were also virucidal in both assays.

RF infected H9 cells = test: Cell-Associated HIV Inactivation assay; type: cell-based, HIV-1; settings: for Infec. Red. (log), Cell-Associated HIV Inactivation: two minute incubation; for virucidal activity against cell-associated HIV: sufficient if viral titer reduction of at least two log10 units
Method: as §1

human spermatozoa = test: Sander-Cramer assay, spermicidal activity; type: cell-based; settings: for Highest Spermicidal Dilution, median / M.E.C. (minimum effective concentration): solvent dH2O; for Highest Spermicidal Dilution, median: N-9 equimolar 24, kill all spermatozoa within twenty seconds; for M.E.C. (minimum effective concentration): complete spermicidal activity within twenty seconds
Method: N-9 and its iodinated derivatives were assessed in vitro for their ability to kill spermatozoa and HIV virions. The Sander-Cramer assay was performed in order to evaluate the spermicidal activity of the surfactants and their coprecipitates with PVP. This assay determines the minimum lethal dose, reported as a concentration, of spermicide needed to kill all spermatozoa within twenty seconds. The following oligomers were incorporated into coprecipitates with PVP for the in vitro assessment: IN-9 (n=1-17), IN-9 (n=8) and IN-9 (n=13). The neat liquids of N-9 and IN-9 were also assessed for their spermicidal activity. The quantity of active compound in each coprecipitate was determined by a normal phase HPLC analysis and presented as a weight by weight (w/w) percentage. The amount of active compound in each coprecipitate was adjusted by using the w/w percentages so that the assays were conducted using equimolar amounts of active compounds.

[2] = Solubility and pH of test solutions in dH2O (Table 2); settings: in dH2O at initial concentration of the Sander-Cramer assay
[3] = background; cited from earlier work
HIV-1 = settings: background; cited from earlier work
[4] = as determined by 125IN-9, mean ± spread
[5] = as determined by [14C]N-9, mean ± spread

Mono-iodinated Nonoxynol-9 [IN-9 (n=4)]
log P [1, 4]: 2.4 ± 0.2

Mono-iodinated nonoxynol-9 [IN-9 (1-17)]
Infec. Red. (log), Cell-Free HIV Inactivation (free HIV-1-RF; Conc. 0.0032 %): 0.3 log
Infec. Red. (log), Cell-Free HIV Inactivation (free HIV-1-RF; Conc. 0.01 %): 2.3 log
Infec. Red. (log), Cell-Free HIV Inactivation (free HIV-1-RF; Conc. 0.032 %): 3.3 log
Infec. Red. (log), Cell-Free HIV Inactivation (free HIV-1-RF; Conc. 0.1 %): >4.5 log
effectiveness in killing HIV compared with N-9 (n=1-17) (free HIV-1-RF; statement on Table 3, both assays): at least as effective in killing HIV as N-9 (n=1-17)
virucidal activity against cell-free HIV (free HIV-1-RF): virucidal
effectiveness against cell-associated HIV compared with N-9 (RF infected H9 cells): slightly more effective than N-9
Infec. Red. (log), Cell-Associated HIV Inactivation (RF infected H9 cells; Conc. 0.0032 %): 1.0 log
Infec. Red. (log), Cell-Associated HIV Inactivation (RF infected H9 cells; Conc. 0.01 %): 1.8 log
Infec. Red. (log), Cell-Associated HIV Inactivation (RF infected H9 cells; Conc. 0.032 %): 2.3 log
Infec. Red. (log), Cell-Associated HIV Inactivation (RF infected H9 cells; Conc. 0.1 %): >5.0 log
virucidal activity against cell-associated HIV (RF infected H9 cells): virucidal
MEC times less than that of neat N-9 (n=1-17) (human spermatozoa; neat liquids): over 30 times
Highest Spermicidal Dilution, median (human spermatozoa): 4096.0
M.E.C. (minimum effective concentration) (human spermatozoa): 6.0 µg/mL
Solubility [2]: OK hazy soln.

Mono-iodinated Nonoxynol-9 [IN-9 (n=13)]
log P [1, 4]: 1.8 ± 0.1

Nonoxynol-9 [N-9 (n=11), reference compound]
log P [1, 5]: 1.3 ± 0.07

Mono-iodinated Nonoxynol-9 [IN-9 (n=8)]
log P [1, 4]: 2.2 ± 0.1

Nonoxynol-9 [N-9 (n=8), reference compound]
log P [1, 5]: 1.4 ± 0.01

Mono-iodinated Nonoxynol-9 [IN-9 (n=11)]
log P [1, 4]: 2.2 ± 0.1

CCCCCCCCCc1ccc(OCCOCCOCCOCCOCCOCCOCCOCCOCCO)cc1 [N-9 (1-17), nonoxynol-9]
Infec. Red. (log), Cell-Free HIV Inactivation (free HIV-1-RF; Conc. 0.0032 %): 0.3 log
Infec. Red. (log), Cell-Free HIV Inactivation (free HIV-1-RF; Conc. 0.01 %): 2.3 log
Infec. Red. (log), Cell-Free HIV Inactivation (free HIV-1-RF; Conc. 0.032 %): >4.5 log
Infec. Red. (log), Cell-Free HIV Inactivation (free HIV-1-RF; Conc. 0.1 %): >3.5 log
virucidal activity against cell-free HIV (free HIV-1-RF): virucidal
Infec. Red. (log), Cell-Associated HIV Inactivation (RF infected H9 cells; Conc. 0.0032 %): 0.8 log
Infec. Red. (log), Cell-Associated HIV Inactivation (RF infected H9 cells; Conc. 0.01 %): 0.8 log
Infec. Red. (log), Cell-Associated HIV Inactivation (RF infected H9 cells; Conc. 0.032 %): 2.5 log
Infec. Red. (log), Cell-Associated HIV Inactivation (RF infected H9 cells; Conc. 0.1 %): 3.2 log
virucidal activity against cell-associated HIV (RF infected H9 cells): virucidal
Highest Spermicidal Dilution, median (human spermatozoa): 128.0
M.E.C. (minimum effective concentration) (human spermatozoa): 188.0 µg/mL
Solubility [2]: OK clear soln.
vaginal irritation [3]: increase with increased dose
inactivation of HIV-1 in vitro (HIV-1): inactivates HIV-1 completely

Nonoxynol-9 [N-9 (n=4), reference compound]
log P [1, 5]: 1.6 ± 0.05

Reference: patent publication US20010036965A1, “Iodo-nonoxynol-9-derivatives and methods for their use” (The Medical College of Hampton Roads, Eastern Virginia …, priority 1999, published 2001)
